Assay results from patent US20090275667A1, “USE OF ALLICIN AS PRESERVATIVE, AS DISINFECTANT, AS ANTIMICROBIAL OR AS BIOCIDAL AGENT” (Stone Island Holdings Ltd, priority 2003, published 2009).
Values joined by “and” are separate entries in the source; they are usually repeats but may differ in a detail not shown here. Identical values can stand only once.

Columns and labels:
P. larvae subsp. larvae = assay: Investigation into bacteriostatic or bactericidal effects (Study 2); type: cell-based, Paenibacillus larvae subsp. larvae; set-up: key to Growth in broth after exposure to test Item at concentration indicated: *: Growth present in one replicate only
Experimental: Where there was no growth in a replicate, at the end of one week the culture was plated out for single colonies on the appropriate agar. This was to determine whether the test item had bactericidal activity, where all the bacterial cells are killed, or bacteriostatic action, where the cells are unable to replicate in the presence of the substance, but will grow when it is removed. A further test, where 0.5 ml of the broth was transferred into 4.5 ml fresh broth (giving a 1:10 dilution) was also undertaken. There would still be some Allicin in the broth, but it should be present at a low enough concentration for growth not to be affected. Where growth occurred in the absence of Allicin, the broth was examined microscopically and plated out for single colonies to confirm the identity of the bacterium.

[1] = system: Escherichia coli (NCTC 8156); assay: Modified Kelsey-Sykes test; type: cell-based; set-up: key: CG = Confluent growth
Excerpt: Allicin can be used to displace or supplement existing harmful forms of disinfectant/biocide such as chlorine, sodium hypochlorite, ozone and per-acetic acid all of which can have an adverse effect on the environment. UV radiation is also used for disinfection but power and general running costs are high. Laboratory studies have been conducted on our behalf using allicin on aqueous suspensions of bacterial species commonly used as indicators of the effectiveness of water and wastewater disinfection. To this effect, identified isolates from the faecal coliform and streptococcus groups, namely, Escherichia coli (NCTC 8156) and Enterococcus hirae (University of Brighton isolate) were used in all experiments. An aqueous solution of allicin with a nominal concentration of allicin of 1.8 g per litre ie a 0.18% solution was used.
Stock suspensions of Escherichia coli (NCTC 8156) and Enterococcus hirae (University of Brighton isolate) were cultivated in Nutrient Broth No. 2 from freeze dried isolates. Prior to each experiment, serial dilutions of the suspensions were enumerated by the spread plate method on Nutrient Agar and subsequent incubation at 37 deg C.
Initial experimental procedures were based on the methods set out in an established UK protocol (BS 6905: 1987). The Kelsy-Sykes methodology was developed as a guide to the concentrations of disinfectants which may be recommended for use under “dirty” (wastewater/sewage) conditions. It is therefore a suitable means of establishing the effectiveness of a disinfectant against a wastewater containing particulate and dissolved contaminants in addition to micro-organisms.
Therefore, with regard to wastewater/sewage considerations, the protocol was adapted. Under the revised methodology, a sample was taken from the bacterial suspension/biocide mix after the prescribed contact time and plated out onto solid media so that a colony count could be made (see Tables 1 and 2).

Ascosphaera apis = assay: Disk diffusion test (Kirby-Bauer), zone of inhibition; type: cell-based; conditions: 6 mm paper disc containing 250 μg of allicin
Experimental: (§1) Allicin (Allisure™ Liquid) was tested against bacterial and fungal pathogens using a standard disk diffusion method (per Norrell & Messley). The aliquots of bacterial or fungal spores (100 μl of approximately 10^8-10^9 spores/ml) were plated on Mueller-Hinton agar medium, 4.0 mm depth. The 6 mm paper discs containing 250 μg of allicin or 5 μg of tylosin (positive control) were placed in the center of each plate. Plates were incubated at 33° C. and 6% CO2 and a zone of inhibition was measured 24 h, 48 h or 76 h post inoculation depending on the microbial species. All experiments were replicated at least three times.

[2] = system: Paenibacillus larvae subsp. pulvifaciens; assay: as above; type: cell-based; conditions: 6 mm paper disc containing 250 μg of allicin
Experimental: as §1

Ascosphaera aggregata = assay: as above; type: cell-based; conditions: 6 mm paper disc containing 250 μg of allicin
Experimental: as §1

[3] = system: Paenibacillus larvae subsp. larvae; assay: as above; type: cell-based; conditions: 6 mm paper disc containing 250 μg of allicin
Experimental: as §1

[4] = allicin conc. 0.9 % (w/v), 10 mins
[5] = allicin conc. 0.9 % (w/v), 20 mins
[6] = allicin conc. 0.9 % (w/v), 30 mins
[7] = allicin conc. 1.08 % (w/v), 10 mins
[8] = allicin conc. 1.08 % (w/v), 20 mins
[9] = allicin conc. 1.26 % (w/v), 10 mins
[10] = allicin conc. 1.26 % (w/v), 20 mins
[11] = allicin conc. 1.62 % (w/v), 10 mins
[12] = allicin conc. 1.62 % (w/v), 20 mins

C=CCS[S+]([O-])CC=C (centres unmarked) [allicin, Allicin]
Growth in broth after exposure to test Item at concentration indicated (P. larvae subsp. larvae; 50 ppm, 10% inoculum transferred to fresh broth): * | bacteriostatic or bactericidal effect (P. larvae subsp. larvae; conclusion from subculture after exposure): a bactericidal effect appeared to be observed | Numbers of colony forming units killed [1, 4]: CG | Percentage reduction in colony forming units [1, 4]: CG | Numbers of colony forming units killed [1, 5]: CG | Percentage reduction in colony forming units [1, 5]: CG | Numbers of colony forming units killed [1, 6]: CG | Percentage reduction in colony forming units [1, 6]: CG | Numbers of colony forming units killed [1, 7]: CG | Percentage reduction in colony forming units [1, 7]: CG | Numbers of colony forming units killed [1, 8]: CG | Percentage reduction in colony forming units [1, 8]: CG | Percentage reduction in colony forming units ([1]; allicin conc. 1.08 % (w/v), 30 mins): 94% | Numbers of colony forming units killed [1, 9]: CG | Percentage reduction in colony forming units [1, 9]: CG | Numbers of colony forming units killed [1, 10]: CG | Percentage reduction in colony forming units [1, 10]: CG | Percentage reduction in colony forming units ([1]; allicin conc. 1.26 % (w/v), 30 mins): 97% | Percentage reduction in colony forming units ([1]; allicin conc. 1.4 % (w/v), 10 mins): CG | Percentage reduction in colony forming units ([1]; allicin conc. 1.4 % (w/v), 20 mins): CG | Percentage reduction in colony forming units ([1]; allicin conc. 1.4 % (w/v), 30 mins): 89% | Numbers of colony forming units killed ([1]; allicin conc. 1.44 % (w/v), 10 mins): CG | Numbers of colony forming units killed ([1]; allicin conc. 1.44 % (w/v), 20 mins): CG | Numbers of colony forming units killed [1, 11]: CG | Percentage reduction in colony forming units [1, 11]: CG | Numbers of colony forming units killed [1, 12]: CG | Percentage reduction in colony forming units [1, 12]: CG | Percentage reduction in colony forming units ([1]; allicin conc. 1.62 % (w/v), 30 mins): 83% | zone of inhibition (Ascosphaera apis): 31-35 mm | zone of inhibition [2]: 24-26 mm | zone of inhibition (Ascosphaera aggregata): 35-37 mm and 35-38 mm | zone of inhibition [3]: 45-50 mm
